Measurements published in US5776944A, “7-(4-aminomethyl-3-methyloxyiminopyrroplidin-1-yl)-1-cyclopropyl-6-flu oro-4-oxo-1,4-dihydro-1,8-naphthyridine-3-carboxylic acid and the process for the preparation thereof” (LG Chemical Ltd., priority 1994, dated 1998).
Read-outs that look alike come from different tables or passages of the source.

Legend:
[1] = system: Salmonella thypimurium 14028; assay: In vitro antibacterial activity (MIC, agar medium dilution), Biological Example 4; format: cell-based; details: 18 h; Salmonella thypimurium 14028, Table 32, ratio of weight; read-out: Minimum Inhibitory Concentration: MIC
test strains = assay: In vitro antibacterial activity, overall finding, Biological Example 4; format: cell-based; details: Tables 31 and 32
Method: (§1) In order to determine the antibacterial activitiers of the E- and Z-isomner of the compound 180 which were separated in Example 203, and of 7- (4-aminomethyl-3-methyloxylminopyrrolidin-1-yl)-1-cyclopropyl-6-fluoro-4-oxo-1,4-dihydro-1,8-naphthyridine-3-carboxylic acid methanesulfonate prepared in Example 204, in vitro antibacterial activities of them were measured using agar medium dilution method. The results were as described in the following Tables 31 and 32.

Proteus vulgaris 6059 = assay: In vitro antibacterial activity (MIC, agar medium dilution), Biological Example 4; format: cell-based; details: 18 h; Proteus vulgaris 6059, Table 32, ratio of weight; read-out: Minimum Inhibitory Concentration: MIC
physchem = details: phosphate buffered solution
[2] = system: Streptococcus faecalis 29212; assay: In vitro antibacterial activity (MIC, agar medium dilution), Biological Example 4; format: cell-based; details: Enterococcus faecalis, 29212, 18 h, Streptococcus faecalis 29212, Table 32, ratio of weight; read-out: Minimum Inhibitory Concentration: MIC
Seratis marsecence 1826E = assay: as above; format: cell-based; details: 18 h, Table 32, ratio of weight, read-out: Minimum Inhibitory Concentration: MIC
Method: as §1

Staphylococcus aureus 77 = assay: as above; format: cell-based; details: 18 h; Staphylococcus aureus 77, Table 32, ratio of weight; read-out: Minimum Inhibitory Concentration: MIC
[3] = Antibacterial activity of methanesulfonate and its hydrate; format: cell-based
[4] = system: Citrobacter diversus 2046E; assay: In vitro antibacterial activity (MIC, agar medium dilution), Biological Example 4; format: cell-based; details: Citrobacter koseri, 18 h, Table 32, ratio of weight, read-out: Minimum Inhibitory Concentration: MIC
[5] = system: Klebsiella aerogenes 1082E; assay: as above; format: cell-based; details: 18 h, Table 32, ratio of weight, read-out: Minimum Inhibitory Concentration: MIC
[6] = format: physicochemical
[7] = system: Staphylococcus epidermidis 178; assay: In vitro antibacterial activity (MIC, agar medium dilution), Biological Example 4; format: cell-based; details: 18 h; Staphylococcus epidermidis 178, Table 32, ratio of weight; read-out: Minimum Inhibitory Concentration: MIC
Escherichia coli 851E = assay: as above; format: cell-based; details: 18 h, Table 32, ratio of weight, read-out: Minimum Inhibitory Concentration: MIC
[8] = system: Staphylococcus aureus 241; assay: as above; format: cell-based; details: Staphylococcus aureus, 241, 18 h, Staphylococcus aureus 241, Table 32, ratio of weight; read-out: Minimum Inhibitory Concentration: MIC
[9] = system: Pseudomonas aeruginosa 10145; assay: as above; format: cell-based; details: Pseudomonas aeruginosa, 10145, 18 h, Pseudomonas aeruginosa 10145, Table 32, ratio of weight; read-out: Minimum Inhibitory Concentration: MIC
[10] = system: Staphylococcus aureus 6538p; assay: In vitro antibacterial activity (MIC, agar medium dilution), Biological Example 4; format: cell-based; details: 18 h, Table 32, ratio of weight without considering molecular weight, read-out: Minimum Inhibitory Concentration: MIC
[11] = system: Klebsiella aerogenes 1976E; assay: as above; format: cell-based; details: 18 h, Table 32, ratio of weight, read-out: Minimum Inhibitory Concentration: MIC
[12] = system: Staphylococcus aureus giorgio; assay: as above; format: cell-based; details: 18 h, Table 32, ratio of weight, read-out: Minimum Inhibitory Concentration: MIC
Bacillus subtilis 6633 = assay: as above; format: cell-based; details: 18 h; Bacillus subtilis 6633, Table 32, ratio of weight; read-out: Minimum Inhibitory Concentration: MIC
[13] = system: Acinetobacter calcoaceticus 15473; assay: as above; format: cell-based; details: 18 h; Acinetobacter calcoaceticus 15473, Table 32, ratio of weight; read-out: Minimum Inhibitory Concentration: MIC
Escherichia coli 10536 = assay: as above; format: cell-based; details: Escherichia coli, 10536, 18 h, read-out: Minimum Inhibitory Concentration: MIC, Escherichia coli 10536, Table 32, ratio of weight
[14] = system: Escherichia coli TEM3 3455E; assay: as above; format: cell-based; details: TEM33455E, 18 h, read-out: Minimum Inhibitory Concentration: MIC, Escherichia coli TEM3 3455E, Table 32, ratio of weight
[15] = system: Escherichia coli TEM5 3739E; assay: as above; format: cell-based; details: TEM53739E, 18 h, read-out: Minimum Inhibitory Concentration: MIC
[16] = system: Escherichia coli TEM9 2639E; assay: as above; format: cell-based; details: TEM92639E, 18 h, read-out: Minimum Inhibitory Concentration: MIC
[17] = system: Pseudomonas aeruginosa 1912E; assay: as above; format: cell-based; details: 18 h, Table 32, ratio of weight, read-out: Minimum Inhibitory Concentration: MIC
[18] = system: Staphylococcus epidermidis 887E; assay: as above; format: cell-based; details: 18 h, read-out: Minimum Inhibitory Concentration: MIC, Staphylococcus epidermidis 887E, Table 32, ratio of weight
Micrococcus luteus 9341 = assay: as above; format: cell-based; details: 18 h; Micrococcus luteus 9341, Table 32, ratio of weight; read-out: Minimum Inhibitory Concentration: MIC
Enterobacter cloacae P99 = assay: microbe, parasite or virus in culture; format: cell-based; details: P99, 18 h, read-out: Minimum Inhibitory Concentration: MIC
[19] = system: Enterobacter cloacae 1194E; assay: microbe, parasite or virus in culture; format: cell-based; details: 18 h, read-out: Minimum Inhibitory Concentration: MIC
Escherichia coli 3190Y = assay: In vitro antibacterial activity (MIC, agar medium dilution), Biological Example 4; format: cell-based; details: 18 h, Table 32, ratio of weight, read-out: Minimum Inhibitory Concentration: MIC

SMILES: CON=C1CN(c2nc3c(cc2F)c(=O)c(C(=O)O)cn3C2CC2)CC1CN.CS(=O)(=O)O (centres unmarked) [Methanesulfonate, 7-(4-aminomethyl-3-methyloxyiminopyrrolidin-1-yl)-1-cyclopropyl-6-fluoro-4-oxo-1,4-dihydro-1,8-naphthyridine-3-carboxylic acid methanesulfonate]
- MIC [1]: 0.031 µg/mL
- antibacterial activity (test strains): excellent antibacterial activity
- MIC (Proteus vulgaris 6059): 0.25 µg/mL
- solubility (physchem; pH 2, Water Solubility, phosphate buffered solution (pH 2)): > 20 mg/mL
- solubility (physchem; pH 7, Water Solubility, phosphate buffered solution (pH 7)): > 30 mg/mL
- MIC [2]: 0.13 µg/mL
- MIC (Seratis marsecence 1826E): 0.13 µg/mL
- MIC (Staphylococcus aureus 77): 0.031 µg/mL
- antibacterial activity compared with the free form [3]: the same potent antibacterial activity as the free form
- MIC [4]: 0.031 µg/mL
- MIC [5]: 0.031 µg/mL
- solubility [6]: excellent solubility
- MIC [7]: 4 µg/mL
- MIC (Escherichia coli 851E): 0.016 µg/mL
- MIC [8]: 4 µg/mL
- MIC [9]: 0.5 µg/mL
- water solubility compared with other salts and free form: superior to that of the tartarate, the sulfurate, and the p-toluenesulfonate as well as the free form
- MIC [10]: 0.016 µg/mL
- MIC [11]: 0.13 µg/mL
- MIC [12]: 0.016 µg/mL
- MIC (Bacillus subtilis 6633): 0.016 µg/mL
- MIC [13]: 0.031 µg/mL
- MIC (Escherichia coli 10536): 0.008 µg/mL
- MIC [14]: 0.25 µg/mL
- MIC [15]: 0.13 µg/mL
- MIC [16]: 0.031 µg/mL
- MIC [17]: 0.25 µg/mL
- MIC [18]: 0.016 µg/mL
- MIC (Micrococcus luteus 9341): 0.13 µg/mL
- MIC (Enterobacter cloacae P99): 0.016 µg/mL
- MIC [19]: 0.031 µg/mL
- MIC (Escherichia coli 3190Y): 0.008 µg/mL
